Data as given in patent US6372449B1, “Opthalmic methods and uses” (priority 1999, dated 2002).

What was measured:
ocular structures [1] = settings: prior-art dyes, general statement; cited from earlier work
[2] = tested on: epiretinal and internal limiting membrane of the retina; experiment: Staining of the inner limiting membrane with trypan blue solution during pars plana vitrectomy; type: in vivo, patient; settings: 0.1% w/w in physiological saline, instilled, left for 30 seconds, aspirated and irrigated; Patients A and B
Text: In respect of retinal surgery for the removal of aberrant membranes or for the peeling of epiretinal and internal limiting membranes of the retina, the vitreous gel of the eye is removed by a technique known as pars plana vitrectomy, with stripping of the outer (cortical) vitreous. In place of the vitreous gel, infusion fluid is introduced into the eye via an infusion port. The inner limiting membrane may then be stained with trypan blue solution (for example 0.1% w/w) instilled with a fine silicone-tipped extrusion needle, left for 30 seconds to stain the membrane, aspirated, followed by irrigation of the area with balanced salt (physiological) solution. Peeling of the membrane proceeds and is greatly facilitated because of improved visualization of the extent of the membrane. The procedure is then completed in standard fashion with fluid-gas exchange.
Patient A required peeling of epiretinal and internal limiting membrane of the retina as part of the surgical management of premacular fibrosis and macular hole conditions.
Patient B is a diabetic suffering from severe diabetic retinopathy, with proliferative vitreo retinopathy.
A 0.1% w/w solution of trypan blue in physiological saline is prepared.
In each patient the vitreous gel of the eye is removed by pars plana vitrectomy an established procedure in the art, which involves stripping of the outer (cortical) vitreous. […]

trabecular meshwork = experiment: Marking of the trabecular meshwork with trypan blue before laser treatment in glaucoma; type: in vivo; settings: Patient C
Text: Eye pressure is regulated in part by flow of ocular fluid (aqueous humour) through a biological valve, known as the trabecular meshwork. In glaucoma, a pathological condition where the eye pressure is raised, the eye pressure may be lowered by application of a laser energy source to the trabecular meshwork. In the prior art the success of this technique generally depends upon the presence of sufficient natural pigmentation of the trabecular meshwork which will absorb the laser energy. Using trypan blue to mark the trabecular meshwork improves identification of this structure, and the uptake of laser energy. A trypan blue solution is instilled into the eye in the location of the trabecular meshwork, and after a short time period such as from 10 seconds to one minute, the trypan blue solution is removed and the area generally irrigated to remove excess trypan blue. The now marked trabecular meshwork can be readily visually distinguished, and laser application can take place. Other ocular structures may be marked in the same manner so as to enable identification and if necessary surgical or other treatment.
Patient C is a glaucoma sufferer who has elevated eye pressure. 0.1% trypan blue is instilled into the eye of patient C through a cannular, introducing the trypan blue solution in the area with trabecular meshwork.

ocular structures [3] = experiment: Toxicity and permanence of staining of dyes used in the eye; settings: trypan blue, general statement
Text: A number of dyes have been used in the eye to identify vital structures, examples of dyes used include indocyanin green, rose bengal, gentian violet and methylene blue.

CN(C)c1ccc2nc3ccc(=[N+](C)C)cc-3sc2c1 [methylene blue]
toxicity to ocular structures (ocular structures [1]): toxic to ocular structures

Cc1cc(-c2ccc(/N=N/c3c(S(=O)(=O)O)cc4cc(S(=O)(=O)O)cc(N)c4c3O)c(C)c2)ccc1/N=N/c1c(S(=O)(=O)O)cc2cc(S(=O)(=O)O)cc(N)c2c1O [trypan blue]
visual identification of membranes after staining [2]: readily identified
visualization of the trabecular meshwork (trabecular meshwork; 0.1% trypan blue instilled through a cannular, glaucoma): visualized by simple visual identification
eye pressure after laser treatment (trabecular meshwork; 0.1% trypan blue marking followed by laser light, elevated eye pressure): Successful lowering of eye pressure
uptake of laser energy (trabecular meshwork; 0.1% trypan blue, after irrigation, area subject to laser light): improving uptake of laser energy
reversibility of staining of eye structures (ocular structures [3]): does not irreversibly stain eye structures
toxicity in the eye (ocular structures [3]): non-toxic

CC1(C)C(/C=C/C=C/C=C/C=C2\N(CCCCS(=O)(=O)[O-])c3ccc4ccccc4c3C2(C)C)=[N+](CCCCS(=O)(=O)[O-])c2ccc3ccccc3c21.[Na+] [indocyanin green]
toxicity to ocular structures (ocular structures [1]): toxic to ocular structures

O=C([O-])c1c(Cl)c(Cl)c(Cl)c(Cl)c1-c1c2cc(I)c(=O)c(I)c-2oc2c(I)c([O-])c(I)cc12.[Na+].[Na+] [rose bengal]
toxicity to ocular structures (ocular structures [1]): toxic to ocular structures

CN(C)c1ccc(C(=C2C=CC(=[N+](C)C)C=C2)c2ccc(N(C)C)cc2)cc1 [gentian violet]
toxicity to ocular structures (ocular structures [1]): toxic to ocular structures
